In patent US9126945B2, “N-(3-carbamoylphenly)-1H-pyrazole-5-carboxamide derivatives and the use thereof for controlling animal pests” (BAYER INTELLECTUAL PROPERTY GMBH, priority 2011, dated 2015):

Experiments:
[1] = system: Tetranychus urticae; assay: Tetranychus test, OP-resistant (TETRUR spray treatment), bean leaf discs; type: in vivo; conditions: for efficacy in %: application rate 500 g/ha, after 6 days
Description: Tetranychus Test, OP-Resistant (TETRUR Spray Treatment)
After a time of 6 days, the efficacy in % is determined.

[2] = log P by HPLC, EEC Directive 79/831 Annex V.A8, method a); type: physicochemical
Description: (§1) ^a) Note regarding the determination of the log P values and mass detection The determination of the given log P values was carried out in accordance with EEC Directive 79/831 Annex V.A8 by HPLC (High Performance Liquid Chromatography) on a reversed-phase column (C18). Agilent 1100 LC system; 50*4.6 Zorbax Eclipse Plus C18 1.8 micron; mobile phase A: acetonitrile (0.1% formic acid); mobile phase B: water (0.09% formic acid); linear gradient from 10% acetonitrile to 95% acetonitrile in 4.25 min, then 95% acetonitrile for a further 1.25 min; oven temperature 55° C.; flow rate: 2.0 ml/min Mass detection is via an Agilend MSD system.
as §1, with “mass detection:” for “mass detection”, “2.0 ml/min.” for “2.0 ml/min”

[3] = system: Phaedon cochleariae; assay: Phaedon test (PHAECO spray treatment), Chinese cabbage leaf discs; conditions: for efficacy in %: application rate 500 g/ha, after 7 days
[4] = system: Myzus persicae; assay: Myzus test (MYZUPE spray treatment); type: in vivo; conditions: for inhibition at 100 g/ha / inhibition at 20 g/ha: Myzus persicae, 144 h; for efficacy in %: application rate 500 g/ha, after 6 days
Description: Myzus test (Myzupe spray treatment)
After 6 days, the efficacy in % is determined.
Myzus Test (MYZUPE Spray Treatment)

[5] = system: Spodoptera frugiperda; assay: Spodoptera frugiperda test (SPODFR spray treatment), maize leaf discs; type: in vivo; conditions: application rate 500 g/ha; after 7 days
Excerpt: Spodoptera frugiperda Test (SPODFR Spray Treatment)

[6] = system: Phaedon cochleariae; assay: Phaedon cochleariae spray test (PHAECO), cabbage leaves, ppm; type: in vivo; conditions: 168 h, 7 dat
Excerpt: Phaedon cochleariae Spray Test (PHAECO)
Solvent: 7 parts by weight of dimethylformamide
Emulsifier: 2 parts by weight of alkylaryl polyglycol ether
(§2) If the addition of ammonium salts or/and penetrants is required, these are in each case added in a concentration of 1000 ppm to the solution of the preparation.

[7] = system: Nilaparvata lugens; assay: Nilaparvata lugens spray test (NILALU); type: in vivo
Excerpt: Nilaparvata lugens Spray Test (NILALU)
as §2

[8] = system: Ctenocephalides felis; assay: Ctenocephalides felis oral (CTECFE); type: in vivo
Description: Ctenocephalides felis Oral (CTECFE)
Solvent: 1 part by weight of dimethyl sulphoxide
For the purpose of producing a suitable preparation of active compound, 10 mg of active compound are mixed with 0.5 ml of dimethyl sulphoxide. A portion of the concentrate is diluted with citrated cattle blood, and the desired concentration is prepared.
(§3) About 20 unfed adult fleas (Ctenocephalides felis) are placed into a chamber which is closed at the top and bottom with gauze. A metal cylinder whose bottom end is closed with parafilm is placed onto the chamber. The cylinder contains the blood/active compound preparation, which can be taken up by the fleas through the parafilm membrane. After 2 days, the kill in % is determined.
For the purpose of preparing an appropriate active compound formulation, 10 mg of active compound are mixed with 0.5 ml of dimethyl sulphoxide. A portion of the concentrate is diluted with citrated cattle blood, and the desired concentration is prepared.
as §3, with “membrane.” for “membrane. After 2 days, the kill in % is determined.”

[9] = system: Boophilus microplus; assay: Boophilus microplus test (BOOPMI injection); type: in vivo; conditions: for % Activity dat: BOOPMI injection, 7 dat
Description: Boophilus microplus Test (BOOPMI Injection)
(§4) Solvent: dimethyl sulphoxide
The active compound solution is injected into the abdomen (Boophilus microplus), and the animals are transferred into dishes and stored in a climate-controlled room. The activity is assessed by laying of fertile eggs.
The active compound solution is injected into the abdomen (Boophilus microplus), and the animals are transferred into dishes and stored in a climate-controlled room.
The activity is assessed by laying of fertile eggs. 100% means that none of the ticks has laid any fertile eggs.

[10] = system: Boophilus microplus females of the SP-resistant Parkhurst strain; assay: Boophilus microplus test (DIP); type: in vivo; conditions: Rhipicephalus microplus, 168 h, BOOPMI DIP, 7 dat
Description: Boophilus microplus Test (DIP)
Test animals: adult engorged Boophilus microplus females of the SP-resistant Parkhurst strain
as §4
10 mg of active compound are dissolved in 0.5 ml of dimethyl sulphoxide. For the purpose of preparing a suitable formulation, the active compound solution is diluted with water to the concentration desired in each case.
This active compound preparation is pipetted into tubes. 8-10 ticks are transferred into a further tube with holes. The tube is immersed into the active compound formulation, and all ticks are completely wetted. After the liquid has rum off, the ticks are transferred to filter discs in plastic dishes and kept in a climatized room. The activity is assessed after 7 days by laying of fertile eggs. Eggs whose fertility is not outwardly visible are stored in glass tubes in a climate-controlled cabinet until the larvae hatch. An efficacy of 100% means that none of the ticks has laid any fertile eggs.
10 mg of active compound are dissolved in 0.5 ml of dimethyl sulphoxide. For the purpose of preparing a suitable formulation, the active compound solution is diluted with water to the concentration desired in each case (in ppm).
This active compound preparation is pipetted into tubes. 8-10 ticks are transferred into a further tube with holes. The tube is immersed into the active compound formulation, and all ticks are completely wetted. After the liquid has run out, the ticks are transferred onto filter discs in plastic dishes and stored in a climate-controlled room.
The activity is assessed after the desired time by laying of fertile eggs. Eggs whose fertility is not evident from the outside are kept in glass tubes in a climate-controlled cabinet until the larvae have hatched. An effect of 100% means that none of the ticks has laid any fertile eggs.

[11] = cell marked a): HPLC, reversed-phase C18, acetonitrile/water with formic acid, gradient 10% to 95% acetonitrile
[12] = Tetranychus urticae, foliar, 144 h, TETRUR, 6 dat
[13] = reversed-phase C18 HPLC column; HPLC-MS method a), reversed-phase C18, acetonitrile/water with formic acid
[14] = cell prints no method mark; Ex. 40 value equals the log P given under method a)
[15] = reversed-phase HPLC column (C18); cell prints no method mark; Ex. 40 value equals the log P given under method a)

In the case of `CN(C(=O)c1c(Cl)c(C2(Cl)CC2)nn1C)c1ccc(Cl)c(C(=O)NC2(C#N)CC2)c1` [Example 3], the efficacy in % [1] is reported as 100%, the logP [2, 11] is reported as 2.46 ^a) and the efficacy in % [3] is reported as 100%.

Compound `Cn1nc(C(F)(F)C(F)(F)F)c(C(F)(F)F)c1C(=O)Nc1ccc(F)c(C(=O)NC2CC2)c1` [Ik-155, reference compound] has an inhibition at 100 g/ha ([4]; MYZUPE, 100 g/ha, 6 dat) of 0% and an inhibition at 100 g/ha [1, 12] of 0%.

`CCN(C(=O)c1cc(N(C)C(=O)c2c(C(F)(F)F)c(C(F)(F)C(F)(F)F)nn2C)ccc1Cl)C1(C#N)CC1` [Example 4] showed an efficacy in % [5] of 100%, an efficacy in % [4] of 100% and an efficacy in % [1] of 100%. For the same compound, the logP [2, 11] was 3.77 ^a) and the efficacy in % [3] was 100%.

Compound `Cn1nc(C(F)(F)C(F)(F)F)c(C(F)(F)F)c1C(=O)Nc1ccc(Br)c(C(=O)NC2CC2)c1` [Ik-175, reference compound] has an inhibition at 100 g/ha ([4]; MYZUPE, 100 g/ha, 6 dat) of 0%, an inhibition at 4 ppm [6] of 10% and an inhibition at 500 g/ha ([7]; 168 h, 7 dat) of 0%.

For `CCC1CC1NC(=O)c1cc(NC(=O)c2c(C(F)(F)F)c(C(F)(F)C(F)(F)F)nn2C)ccc1Cl` (stereo not drawn) [Ik-286, reference compound], the inhibition at 20 g/ha ([4]; MYZUPE, 6 dat) was 0%, the inhibition at 4 ppm ([8]; Ctenocephalides felis, po, 48 h, CTECFE, 4 ppm, 2 dat) was 0% and the “% Activity dat” value ([9]; 0.16 μg/animal) was 20%. It also gave an inhibition at 100 ppm ([10]; 100 ppm) of 40% and an inhibition at 100 g/ha ([3]; Phaedon cochleariae, in Brassica rapa, foliar, 168 h, read-out: % Activity dat) of 0%.

Work on `CN(C(=O)c1c(C(F)(F)F)c(C(F)(F)F)nn1C)c1ccc(Cl)c(C(=O)NC2(C#N)CC2)c1` [Example 2, N-{4-Chloro-3-[(1-cyanocyclopropyl)carbamoyl]phenyl}-N,1-dimethyl-3,4-bis(trifluoromethyl)-1H-pyrazole-5-carboxamide] yielded an efficacy in % [5] of 100%, an efficacy in % [4] of 100% and an efficacy in % [1] of 100%. For the same compound, the “kill in % (effect)” value ([8]; 100 ppm, after 2 days) was 100%, the “efficacy in % (laying of fertile eggs)” value ([9]; 20 μg/animal, after 7 days) was 100% and the chromatographic logP [2, 13] was 2.81. The efficacy in % [3] was 100%.

Compound `Cn1nc(C(F)(F)C(F)(F)F)c(C(F)(F)F)c1C(=O)Nc1cc(Br)c(Cl)c(C(=O)NC2(C#N)CC2)c1` [Example 13] has a logP [2, 14] of 3.67.

Work on `CCOC(=O)N(C(=O)c1c(C(F)(F)F)c(C(F)(F)C(F)(F)F)nn1C)c1ccc(Cl)c(C(=O)NC2(C#N)CC2)c1` [Example 20] yielded a logP [2, 14] of 3.95.

`CCC(=O)N(C(=O)c1c(C(F)(F)F)c(C(F)(F)C(F)(F)F)nn1C)c1ccc(Cl)c(C(=O)N(C(=O)CC)C2(C#N)CC2)c1` [Example 60] gave a logP [2, 14] of 4.68.

Work on `CC(=O)N(C(=O)c1cc(NC(=O)c2c(C(F)(F)F)c(C(F)(F)C(F)(F)F)nn2C)ccc1Cl)C1(C#N)CC1` [Example 40, N-{3-[Acetyl(1-cyanocyclopropyl)carbamoyl]-4-chlorophenyl}-1-methyl-3-(pentafluoroethyl)-4-(trifluoromethyl)-1H-pyrazole-5-carboxamide] yielded a chromatographic logP [2, 13] of 3.81 and a chromatographic logP [2, 15] of 3.81.

With `Cn1nc(C(F)(F)C(F)(F)F)c(C(F)(F)F)c1C(=O)Nc1ccc(Br)c(C(=O)NC2(C#N)CC2)c1` [Example 14] the “% Activity dat” value ([4]; MYZUPE, 100 g/ha, 6 dat) was 100 6 dat 100 6 dat %, the inhibition at 100 g/ha ([4]; MYZUPE, 100 g/ha, 6 dat) was 100% and the inhibition at 100 g/ha [1, 12] was 100%. It also gave an inhibition at 4 ppm [6] of 100%, an inhibition at 500 g/ha ([7]; 96 h, 4 dat) of 80% and a chromatographic logP [2, 15] of 3.31.

In the case of `CN(C(=O)c1cc(NC(=O)c2c(C(F)(F)F)c(C(F)(F)C(F)(F)F)nn2C)ccc1Cl)C1(C#N)CC1` [Example 62], the logP [2, 14] is reported as 3.66.

For `CN(C(=O)c1c(C(F)(F)F)c(C(F)(F)C(F)(F)F)nn1C)c1ccc(Cl)c(C(=O)N(C)C2(C#N)CC2)c1` [Example 5], the efficacy in % [5] was 100%, the efficacy in % [4] was 90% and the efficacy in % [1] was 100%. The logP [2, 11] was 3.59 ^a) and the efficacy in % [3] was 100%.

With `Cn1nc(C2(F)CC2)c(Br)c1C(=O)Nc1ccc(Cl)c(C(=O)NC2(C#N)CC2)c1` [Example 1, 4-Bromo-N-{4-chloro-3-[(1-cyanocyclopropyl)carbamoyl]phenyl}-3-(1-fluorocyclopropyl)-1-methyl-1H-pyrazole-5-carboxamide] the efficacy in % [1] was 100%, the chromatographic logP [2, 13] was 2.5 and the efficacy in % [3] was 100%.

With `CC(=O)N(C(=O)c1c(C(F)(F)F)c(C(F)(F)C(F)(F)F)nn1C)c1ccc(Cl)c(C(=O)NC2(C#N)CC2)c1` [Example 53] the logP [2, 14] was 3.63.

`Cn1nc(C(F)(F)C(F)(F)F)c(C(F)(F)F)c1C(=O)Nc1cc(F)c(Br)c(C(=O)NC2(C#N)CC2)c1` [Example 59] showed a logP [2, 14] of 3.58.

`CCCn1nc(C(F)(F)C(F)(F)F)c(C(F)(F)F)c1C(=O)N(CC)c1ccc(Cl)c(C(=O)N(CC)C2(C#N)CC2)c1` [Example 51] showed a logP [2, 14] of 4.68.

In the case of `Cn1nc(C(F)(F)C(F)(F)F)c(C(F)(F)F)c1C(=O)N(CC#N)c1ccc(Cl)c(C(=O)NC2(C#N)CC2)c1` [Example 44], the logP [2, 14] is reported as 3.25.

In the case of `CCN(C(=O)c1c(C(F)(F)F)c(C(F)(F)C(F)(F)F)nn1C)c1ccc(Cl)c(C(=O)NC2CC2)c1` [Ik-136, reference compound], the inhibition at 20 g/ha ([4]; MYZUPE, 6 dat) is reported as 0%, the inhibition at 20 g/ha ([1]; Tetranychus urticae, foliar, 144 h, TETRUR, 20 g/ha, 6 dat) is reported as 0% and the inhibition at 0.8 ppm ([8]; Ctenocephalides felis, po, 48 h, CTECFE, 0.8 ppm, 2 dat) is reported as 30%. The “% Activity dat” value ([9]; 0.032 μg/animal) was 0%, the inhibition at 20 ppm ([10]; 20 ppm) was 0% and the inhibition at 0.8 ppm ([6]; 0.8 ppm) was 0%. The inhibition at 20 g/ha ([7]; 168 h, 20 g/ha, 7 dat) was 0%.

With `Cn1nc(C(F)(F)C(F)(F)F)c(C(F)(F)F)c1C(=O)N(Cc1ccccn1)c1ccc(Cl)c(C(=O)NC2(C#N)CC2)c1` [Example 32] the logP [2, 14] was 3.53.
